Source: patent US20240327427A1, “NEW COMPOUNDS FOR THE TREATMENT OF ALZHEIMER'S DISEASE” (Icahn School of Medicine at Mount Sinai, priority 2020, published 2024)

Experiments:
Aβ42 flies = experiment: Neurodegeneration (vacuole area) in Aβ42 fly brains after drug feeding; assay type: in vivo, Drosophila
Method: Aβ42 flies were treated with 0, 10, or 50 μM of NCH-51 during aging to examine its effects on neurodegeneration.
Heads of male flies were fixed in 4% paraformaldehyde for 24 hours at 4° C. and embedded in paraffin. Serial sections (6 μm thickness) through the entire heads were prepared, stained with hematoxylin and eosin (Sigma-Aldrich), and examined by bright-field microscopy. Images of the sections were captured with AxioCam 105 color (Carl Zeiss). To score brain vacuolization, the inventors performed microscopy of serial brain sections within the central neuropil regions and selected the images with the most severe vacuolization from each fly to score area of vacuolization. The inventors selected the section with the most severe neurodegeneration in the same brain area from each individual fly and the area of vacuoles was measured using Image J (NIH). The analyses were performed more than two times and two to three persons were independently involved in these tasks to avoid any bias.
Flies were fed with the food containing 10 μM or 50 μM NCH51 or vehicle (final concentration 0.02% dimethyl sulfoxide) from the day after eclosion. These food vials were changed every 3-4 days.

Aβ42 = Aβ42 levels in fly brains (western blot); assay type: in vivo, Drosophila; settings: Aβ42 flies, fed
Method: Aβ42 flies were treated with 0, 10, or 50 μM of NCH-51 during aging to examine its effects on neurodegeneration. […] Western blotting was performed as described previously. To detect human Aβ42, ten fly heads for each genotype were homogenized in Tris-Glycine SDS sample buffer, and the same amount of the lysate was loaded to 18% Tris-Glycine gels and transferred to nitrocellulose membrane. The membranes were boiled in PBS for 3 min, blocked with 5% nonfat dry milk, blotted with the anti-AD 6E10 antibody (Signet, Covance), incubated with appropriate secondary antibody and developed using ECL Western Blotting Detection Reagents (GE Healthcare Life Sciences). The membranes were also probed with anti-tubulin (Sigma-Aldrich) as the loading control in each experiment. To detect human tau, ten fly heads for each genotype were homogenized in Tris-Glycine SDS sample buffer, and the same amount of the lysate was loaded to each lane of 10% Tris-Glycine gels and transferred to nitrocellulose membrane. The membranes were blocked with 5% nonfat dry milk, blotted with the antibodies described below, incubated with the appropriate secondary antibody and developed using ECL Prime Western Blotting Detection Reagent (GE Healthcare Life Sciences). […] Imaging was performed with ImageQuant LAS 4000 (GE Healthcare Life Sciences), and the signal intensity was quantified using Image J (NIH).

ATP6V1A = ATP6V1A mRNA expression in drug-treated NPCs (LINCS profiles); assay type: cell-based, human; settings: drug-treated vs DMSO-treated, LINCS data
Excerpt: Compounds were screened for drugs that can rescue the in vitro and in vivo phenotypes arising from ATP6V1A deficits. Using their drug repositioning tool, Ensemble of Multiple Drug Repositioning Approaches (EMUDRA) (Zhou et al., 2018b), the inventors matched the disease signature from the BM36-PHG region and the signatures of 3,629 drugs tested in the NPCs in the Library of Integrated Network-based Cellular Signatures (LINCS) project (FIG. 6A). The inventors further prioritized candidate drugs by their potential to increase the mRNA expression of ATP6V1A in the NPCs.
To identify existing drugs that can restore the molecular expression change in the LOAD brains, the inventors performed a drug repositioning analysis using EMUDRA, which provides a novel computational algorithm to match disease signatures and drug-induced signatures. The inventors downloaded drug-treated gene expression profiles (level 3 data of quantile-normalized and log 2 transformed expression levels from human iPSC-derived neural progenitor cells (NPCs) from the Library of Integrated Network-Based Cellular Signatures (LINCS) program. After removing probes sets mapping to multiple genes or without known gene annotation, the remaining data were adjusted for batch effects using linear regression. The mean expression level of multiple probe sets that match to the same gene was used as the expression level for that gene. For each drug, the applied drug signature was the transcriptome-wide expression difference between drug-treated and DMSO-treated gene expression profiles. The inventors matched each of the drug signatures to the LOAD signature using EMUDRA to find drugs that could reverse the LOAD signature. […] In total, 3,629 drug signatures were analyzed and ranked. The inventors further prioritized the top-ranked drugs that can increase ATP6V1A mRNA expression in the NPCs.

[1] = Aβ42 flies, 50 μM in food vs 0 μM

For `CC(C)C(=O)SCCCCCCC(=O)Nc1nc(-c2ccccc2)cs1` [NCH-51], the “neurodegeneration in cell body and central neuropil regions” value (Aβ42 flies; 21-day-old Aβ42 fly brains) was “suppressed neurodegeneration”, the “cell loss (cell body region neurodegeneration)” value (Aβ42 flies; [1]) was “significantly suppressed” and the neuropil degeneration (Aβ42 flies; [1]) was “significantly suppressed”. For the same compound, the “Aβ42 levels in fly brains” value (Aβ42) was “did not affect” and the “ATP6V1A (log2FC)” value (ATP6V1A) was 0.71 log2FC.
